The values that follow come from patent US6838249B2, “Neuroblastoma cell lines expressing the α2δ subunit of calcium channels and methods therefore” (priority 2001, dated 2005).

Like-named read-outs stand apart in the source and are kept apart here.

One assay deals with IMR32 cells. As to the kind of experiment: Differentiation of IMR32 cells with BrdU, density of [^3H]GBP binding sites. Particulars: 10 μM BrdU for 10 to 12 days. Format: cell-based, human. The protocol: IMR32 cells, SK-N-MC cells and NG 108 cells as well as cells treated in culture with 10 μM of BrdU for 10 to 12 days were used. Cells were harvested and homogenates were made in HEPES/KOH buffer, pH 7.4. The homogenates were centrifuged for 15 min at 1000×g, and the supernatants were centrifuged at 40000×g for 15 min to obtain cell membranes.

Assay [1] concerns α2δ subunit of calcium channels. Particulars: 10 nM [^3H]GBP; for Ki: one-site binding model.

`O=c1[nH]c(=O)n([C@H]2C[C@H](O)[C@@H](CO)O2)cc1Br` [BrdU, 5-Bromo-2′-deoxyuridine]: the “expression of [^3H]GBP binding sites” value in the assay on IMR32 cells is reported as “increased”.

For `CSCC[C@H](N)C(=O)O` [L-methionine], the “inhibition of [^3H]GBP binding to IMR32 cell membranes” value in assay [1] (varying concentrations (FIG. 3)) is recorded as “dose-dependently inhibited”. Also, the Ki (as a rule, the dissociation constant of the complex between target and ligand, obtained from inhibition or displacement) was 30 nM in assay [1] (read-out: Ki (nM) BrdU, differentiated (BrdU) IMR32 cell membranes) and 39 nM in assay [1] (read-out: Ki (nM) Control, undifferentiated (Control) IMR32 cell membranes).
